How the values were obtained:
Experiment in all cases: relative viability (nuclei count vs DMSO), 5 days (fraction); higher = more cells survive
[1] = compound: CC1=C(C(=O)N2C=CSC2=N1)CCN3CCC(=C(C4=CC=CC=C4)C5=CC=C(C=C5)F)CC3 + C[C@]1(O)C[C@@H](c2nc(-c3ccc4ccc(-c5ccccc5)nc4c3)c3c(N)nccn32)C1 [Linsitinib] (partner 1 µM)
In short: (§1)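 Lung cancer cell lines were seeded in 1536-well plates and dosed by pin tool the next day, with either a single drug or a fixed anchor-drug dose combined with five library-drug doses (not always all listed) spaced in √10 steps. Five days later, one step fixed the cells and stained their nuclei (final 0.05% Triton X-100, 1% formaldehyde, 1 ug/ml Hoechst), and nuclei were counted on 4× images. Relative viability is the nuclei count in treated wells divided by the count in vehicle wells, and each value is the median of duplicate plates.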

[2] = compound: CC1=C(C(=O)N2C=CSC2=N1)CCN3CCC(=C(C4=CC=CC=C4)C5=CC=C(C=C5)F)CC3 + Nc1nc2[nH]cc(CCc3ccc(C(=O)N[C@@H](CCC(=O)O)C(=O)O)cc3)c2c(=O)[nH]1 [Pemetrexed] (partner 0.2 µM)
In short: as §1

[3] = compound: CC1=C(C(=O)N2C=CSC2=N1)CCN3CCC(=C(C4=CC=CC=C4)C5=CC=C(C=C5)F)CC3 + O=C(CCCCCCC(=O)Nc1ccccc1)NO [Vorinostat] (partner 1 µM)
In short: as §1

[4] = compound: CC1=C(C(=O)N2C=CSC2=N1)CCN3CCC(=C(C4=CC=CC=C4)C5=CC=C(C=C5)F)CC3 + O=C(c1cc(Cc2n[nH]c(=O)c3ccccc23)ccc1F)N1CCN(C(=O)C2CC2)CC1 [Olaparib] (partner 8 µM)
In short: as §1

Cell Line	relative viability ([1]; first compound 0.08 µM)	relative viability ([1]; first compound 0.253 µM)	relative viability ([1]; first compound 0.8 µM)	relative viability ([1]; first compound 2.53 µM)	relative viability ([1]; first compound 8 µM)	relative viability ([2]; first compound 0.08 µM)	relative viability ([2]; first compound 0.253 µM)	relative viability ([2]; first compound 0.8 µM)	relative viability ([2]; first compound 2.53 µM)	relative viability ([2]; first compound 8 µM)	relative viability ([3]; first compound 0.08 µM)	relative viability ([3]; first compound 0.253 µM)	relative viability ([3]; first compound 0.8 µM)	relative viability ([3]; first compound 2.53 µM)	relative viability ([3]; first compound 8 µM)	relative viability ([4]; first compound 0.08 µM)	relative viability ([4]; first compound 0.253 µM)	relative viability ([4]; first compound 0.8 µM)	relative viability ([4]; first compound 2.53 µM)	relative viability ([4]; first compound 8 µM)
201T	1.05	1.01	1	1.08	1.13	0.304	0.335	0.335	0.342	0.24	1.07	0.93	1.02	1.01	0.595	0.941	0.791	0.824	0.92	0.884
A-427	1.06	1.05	1.13	1.17	0.959	1.06	1.07	0.929	1.07	0.952	0.878	0.824	0.86	0.91	0.748	0.779	0.74	0.723	0.803	0.658
ABC-1	0.655	0.894	0.723	1.02	0.504						1.14		0.938	0.949	0.784	0.836		0.99	1.01	0.536
BEN	0.781	0.967	1.07	0.847	0.79	0.928	0.753	0.715	0.942	0.753	0.548	0.589	0.523	0.682	0.495	1.07	1.22	1.09	1.06	0.89
CAL-12T	0.451	0.894	0.833	0.676	0.634	1.31	1.21	1.32	1.57	0.765	0.566	0.728	0.727	0.957	0.513	0.724	0.718	0.79	0.763	0.6
COR-L23	0.84	0.915	1.04	1.13	0.505	0.198	0.21	0.199	0.203	0.203	0.438	0.365	0.46	0.421	0.405	0.311	0.32	0.344	0.376	0.31
COR-L 105	0.892	0.832	1.05	0.96	0.597	1.03	1.26	1.27	1.4	0.89	0.58	0.738	0.882	1.29	0.607	0.542	0.718	0.633	0.753	0.609
Calu-6	0.927	1.14	0.975	0.875	0.464											0.475	0.602	0.642	0.573	0.462
ChaGo-K-1						0.277	0.27	0.259	0.267	0.236	0.616	0.76	0.809	0.757	0.597	0.451	0.415	0.411	0.458	0.416
EBC-1	0.787	0.804	1.1	0.763	0.62											0.596	0.756	0.777	0.772	0.463
EKVX	0.999	1.05	1.09	0.951	0.839	0.366	0.382	0.436	0.432	0.35	0.577	0.723	0.651	0.63	0.561	0.83	0.868	0.922	0.87	0.729
EMC-BAC-2	0.8	0.804	0.882	0.825	0.627	0.379	0.482	0.49	0.461	0.386	0.416		0.343	0.398	0.377	0.46	0.468	0.468	0.522	0.46
EPLC-272H		1.17	1.2	1.09	0.984	0.335		0.333	0.288	0.416	0.41		0.444	0.505	0.474	0.693		0.911	0.758	0.742
H3255	1	0.888	1.02	1.03	0.726	0.554	0.532	0.552	0.565	0.552	0.821	0.922	0.841	0.836	0.666	0.503	0.63	0.548	0.6	0.504
HARA	0.956	1.09	1.08	0.917	0.54	0.253	0.252	0.253	0.252	0.228	0.477	0.545	0.513	0.665	0.372	0.761	0.779	0.821	0.755	0.774
HCC-15	0.931	0.931	0.942	1.04	0.744	0.216	0.207	0.225	0.231	0.227	0.927	0.96	0.869	0.788	0.606	0.777	0.782	0.716	0.736	0.643

Cell Line	relative viability ([1]; first compound 0.08 µM)	relative viability ([1]; first compound 0.253 µM)	relative viability ([1]; first compound 0.8 µM)	relative viability ([1]; first compound 2.53 µM)	relative viability ([1]; first compound 8 µM)	relative viability ([2]; first compound 0.08 µM)	relative viability ([2]; first compound 0.253 µM)	relative viability ([2]; first compound 0.8 µM)	relative viability ([2]; first compound 2.53 µM)	relative viability ([2]; first compound 8 µM)	relative viability ([3]; first compound 0.08 µM)	relative viability ([3]; first compound 0.253 µM)	relative viability ([3]; first compound 0.8 µM)	relative viability ([3]; first compound 2.53 µM)	relative viability ([3]; first compound 8 µM)	relative viability ([4]; first compound 0.08 µM)	relative viability ([4]; first compound 0.253 µM)	relative viability ([4]; first compound 0.8 µM)	relative viability ([4]; first compound 2.53 µM)	relative viability ([4]; first compound 8 µM)
HCC-44	0.689	0.818	0.662	0.686	0.579	0.729	0.664	0.612	0.644	0.554	1.19	1.19	1.09	1.24	0.93	1.01	1.08	1.03	1.13	0.643
HCC-78	0.547	0.499	0.518	0.54	0.443	0.798	0.867	0.935	0.923	0.66	0.385	0.458	0.546	0.424	0.476	0.663	0.872	0.944	0.921	0.608
HCC-366		0.645	0.594	0.946	0.265	0.199	0.169	0.206	0.156	0.139	0.344	0.405	0.332	0.403	0.256	0.331	0.287	0.469	0.464	0.226
HCC-827	0.961	0.969	0.927	0.996	0.926	0.253	0.237	0.251	0.268	0.235	0.831	0.655	0.797	0.953	0.688	0.655	0.626	0.718	0.637	0.667
HOP-62	1.24	0.948	1	1.06	0.49	0.335	0.315	0.306	0.336	0.12	0.522	0.628	0.552	0.468	0.323	0.388	0.461	0.445	0.434	0.352
IA-LM	0.538	0.518	0.822	0.427	0.411						0.524	0.895	1.01	0.756	0.417	0.93	0.926	0.848	0.709	0.687
LC-2-ad	0.828	0.927	0.885	0.893	0.663	0.247	0.268	0.277	0.271	0.281	0.661	0.517	0.771	0.748	0.53	0.87	0.79	0.65	0.875	0.574
NCI-H727	0.194	0.227	0.298	0.437	0.295						1.08	1.3	1.16	1.13	1.07	0.86	0.734	0.667	0.689	0.599
NCI-H1299	0.901	0.98	1.09	0.932	0.607											1.04	1.01	0.957	0.977	0.803
NCI-H1563	1.12	1.26	1.2	1.1	1.14	0.971	0.766	0.744	0.833	0.653										
NCI-H1648						0.714	0.657	0.749	0.712	0.423	0.26	0.36	0.603	0.4	0.338	1.14	0.981	1.28	0.787	0.359
NCI-H1650						0.335	0.348	0.352	0.461	0.337	0.426	0.525	0.559	0.593	0.327	0.782	0.838	0.862	0.819	0.605
NCI-H1703	1.14	0.819	0.585	0.888	0.482											0.385	0.334	0.427	0.577	0.432
NCI-H1792	0.446	0.353	0.606	0.379	0.575	0.523	0.543	0.606	0.626	0.293						0.318	0.357	0.631	0.603	0.348
NCI-H2170						0.278	0.269	0.28	0.271	0.248	0.638	0.791	0.739	0.715	0.463	0.674	0.538	0.635	0.717	0.394
NCI-H2342						0.657	0.821	0.76	0.818	0.634	0.63	0.882	0.778	0.795	0.6	0.38	0.44	0.435	0.426	0.43

From the supplement of paper PMC10307832
